These results are taken from paper PMC9584906, “Cryo-EM structures of thermostabilized prestin provide mechanistic insights underlying outer hair cell electromotility” (Nature Communications, 2022).

The term pKd denotes −log10 of the Kd, conventionally taken in molar units. The low end stands for a high Kd, the high end for a low Kd.

pKd: −log10 of the molar value.

The target of test [1] is T1, HgPres (naked mole-rat prestin) (Heterocephalus glaber, UniProt A0AAX6NYL9).
T1 construct: gene Slc26a5
T1 sequence (A0AAX6NYL9 1-744): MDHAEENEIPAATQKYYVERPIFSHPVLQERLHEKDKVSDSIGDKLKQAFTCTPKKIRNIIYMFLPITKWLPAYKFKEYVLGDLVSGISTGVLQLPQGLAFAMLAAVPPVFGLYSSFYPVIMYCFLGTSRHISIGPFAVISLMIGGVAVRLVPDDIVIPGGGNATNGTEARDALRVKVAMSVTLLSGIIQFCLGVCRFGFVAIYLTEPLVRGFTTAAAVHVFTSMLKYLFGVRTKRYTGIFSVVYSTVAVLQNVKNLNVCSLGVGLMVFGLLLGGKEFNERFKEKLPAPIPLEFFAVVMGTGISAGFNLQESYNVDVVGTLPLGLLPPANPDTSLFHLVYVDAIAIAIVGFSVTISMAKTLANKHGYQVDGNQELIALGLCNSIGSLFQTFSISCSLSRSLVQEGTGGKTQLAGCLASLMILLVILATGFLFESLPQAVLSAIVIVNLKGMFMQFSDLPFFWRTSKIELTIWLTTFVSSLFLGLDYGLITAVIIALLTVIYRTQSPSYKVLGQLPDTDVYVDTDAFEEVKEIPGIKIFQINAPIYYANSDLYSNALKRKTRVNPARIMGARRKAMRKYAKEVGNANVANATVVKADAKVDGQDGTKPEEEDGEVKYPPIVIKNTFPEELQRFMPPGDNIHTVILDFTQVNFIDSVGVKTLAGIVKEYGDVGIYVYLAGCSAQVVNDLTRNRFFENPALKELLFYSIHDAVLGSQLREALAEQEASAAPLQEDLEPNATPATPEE
The experiment in a line: whole-cell nonlinear capacitance (NLC). The format is cell-based. Particulars: 10 mM salicylate in bath; HEK293T cells; room temperature; pH 7.3.

Test [2] addresses T2, hPres (human prestin, SLC26A5) (Homo sapiens, UniProt P58743).
T2 construct: full-length; C-terminal TEV-FLAG-EGFP tag cleaved off; HEK293S GnTI- (BacMam); digitonin micelles
T2 sequence (P58743 1-744): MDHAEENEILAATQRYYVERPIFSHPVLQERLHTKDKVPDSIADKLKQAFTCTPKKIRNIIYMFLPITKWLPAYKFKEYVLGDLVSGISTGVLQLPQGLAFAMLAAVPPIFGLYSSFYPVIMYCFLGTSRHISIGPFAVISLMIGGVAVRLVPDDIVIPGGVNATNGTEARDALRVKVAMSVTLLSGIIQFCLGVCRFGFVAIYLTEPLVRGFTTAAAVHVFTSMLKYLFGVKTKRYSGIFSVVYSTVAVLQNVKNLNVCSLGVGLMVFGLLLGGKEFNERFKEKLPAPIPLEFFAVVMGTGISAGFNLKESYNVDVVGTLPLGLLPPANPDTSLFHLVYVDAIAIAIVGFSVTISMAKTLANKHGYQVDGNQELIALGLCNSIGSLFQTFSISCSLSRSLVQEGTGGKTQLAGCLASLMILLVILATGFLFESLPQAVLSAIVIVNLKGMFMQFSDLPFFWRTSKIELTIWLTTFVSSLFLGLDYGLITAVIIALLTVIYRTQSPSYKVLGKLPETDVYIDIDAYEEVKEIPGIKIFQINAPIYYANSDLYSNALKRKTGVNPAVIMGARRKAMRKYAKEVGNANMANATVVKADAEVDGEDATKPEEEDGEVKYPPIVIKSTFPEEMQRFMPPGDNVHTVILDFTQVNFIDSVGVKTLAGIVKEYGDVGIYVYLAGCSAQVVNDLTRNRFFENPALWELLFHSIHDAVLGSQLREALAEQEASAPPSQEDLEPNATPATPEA
The experiment in a line: isothermal titration calorimetry. The class given is binding. (In general: In ITC the heat of successive injections is recorded.)

As for `O=C(O)c1ccccc1O` [salicylate], the “effect on NLC at 10 mM” value in test [1] was “The effect of salicylate on the NLC of WT (left) and S398A-HgPres (right)”. The negative logarithm of the Kd (pKd) in test [2] was 2.15.
